Structures are written as SMILES.

Chain of Neutrophil collagenase (P22894 whole entry): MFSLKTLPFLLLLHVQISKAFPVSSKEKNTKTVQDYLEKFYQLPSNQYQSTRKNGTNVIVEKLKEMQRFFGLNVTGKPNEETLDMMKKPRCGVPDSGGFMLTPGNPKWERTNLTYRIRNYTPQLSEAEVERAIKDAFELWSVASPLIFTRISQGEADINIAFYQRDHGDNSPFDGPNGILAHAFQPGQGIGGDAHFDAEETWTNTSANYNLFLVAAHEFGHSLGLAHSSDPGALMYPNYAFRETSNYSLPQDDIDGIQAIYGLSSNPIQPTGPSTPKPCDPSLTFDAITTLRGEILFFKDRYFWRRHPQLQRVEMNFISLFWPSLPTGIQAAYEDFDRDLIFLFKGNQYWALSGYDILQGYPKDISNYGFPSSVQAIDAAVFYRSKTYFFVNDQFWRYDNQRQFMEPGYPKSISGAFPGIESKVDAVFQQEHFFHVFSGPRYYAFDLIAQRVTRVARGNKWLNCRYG

The experiment concerns the target Neutrophil collagenase (Homo sapiens, UniProt P22894). The experiment is described as follows: Inhibition of Matrix metalloprotease-8 (Human neutrophil collagenase, MMP-8).
The molecule `O=C(NO)C(CCc1ccccc1)C(=O)NCCCc1ccccc1` (stereo not given) displayed a Ki of 0.49 µM. As for `CCOC(=O)C(Cc1ccccc1)C(=O)NO` (stereo not given), the figure is 53 µM; as for `O=C(NO)C(Cc1ccccc1)C(=O)NCc1ccccc1` (stereo not given), 3.1 µM. As for `Cc1ccc(CCNC(=O)[C@H](CCc2ccccc2)NC(=O)C(CC(C)C)C(=O)NO)cc1` (stereo not given in full), the Ki stood at 1.4 µM.

In the case of `O=C(NO)C(Cc1ccccc1)C(=O)NCCCc1ccccc1` (stereo not given), the Ki is 0.56 µM. Regarding `CCOC(=O)C(CCc1ccccc1)C(=O)NO` (stereo not given), the affinity, expressed as Ki, was 189 µM. The figure for `CC(C)CC(C(=O)NO)C(=O)NC(CC(=O)O)C(=O)NCc1ccccc1` (stereo in doubt; 12) is 136 µM. The figure for `O=C(NO)C(Cc1ccccc1)C(=O)N1CCOCC1` (stereo not given) is 50 µM; for `CCOC(=O)C(CC(C)C)C(=O)NO` (stereo not given) it is 190 µM. In turn, `CC(C)CC(C(=O)NO)C(=O)NC(Cc1ccccc1)C(=O)NCc1ccccc1` (stereo not given) showed an inhibitory constant (Ki) of 25 µM. As for `CC(C)C[C@H](C(=O)NO)C(=O)N[C@@H](C)C(=O)NCC(N)=O`, the figure is 121 µM; as for `CC(C)CC(C(=O)NO)C(=O)N[C@H](C)C(=O)NCc1ccccc1` (stereo not given in full), 194 µM; as for `CC(C)CC(C(=O)NO)C(=O)NC(CC(N)=O)C(=O)NCc1cccc(N)c1` (stereo not given), 26 µM. The figure for `CC(C)CC(C(=O)NO)C(=O)NC(CC(N)=O)C(=O)NCc1ccccc1` (stereo not given) is 55 µM. As for `CCCCCCCCNC(=O)C(CC(C)C)C(=O)NO` (stereo not given), the figure is 0.24 µM; as for `CC(C)CC(C(=O)NO)C(=O)NC(CC(=O)O)C(=O)NCc1ccccc1` (stereo in doubt; 12b), 88 µM. With `Cc1ccc(CCNC(=O)[C@H](CCc2ccccc2)NC(=O)C(CCc2ccccc2)C(=O)NO)cc1` (stereo not given in full), the Ki was determined as 4 µM. This Ki is about 22-fold lower than that of the molecule before. The figure for `CC(C)CC(C(=O)NO)C(=O)Nc1ccccc1C(=O)NCc1ccccc1` (stereo not given) is 36 µM; for `O=C(NO)C(O)C(=O)NCCCc1ccccc1` (stereo not given) it is 2.3 µM.

Take `CC(C)CC(C(=O)NO)C(=O)NCCCc1ccccc1` (stereo not given): the affinity, expressed as Ki, was 0.54 µM. The figure for `CCOC(=O)C(C(=O)NO)c1ccccc1` (stereo not given) is 98 µM; for `Cc1ccc(CCNC(=O)[C@H](CCc2ccccc2)NC(=O)C(Cc2ccccc2)C(=O)NO)cc1` (stereo not given in full) it is 1.7 µM; for `Cc1ccc(CCNC(=O)[C@H](CCc2ccccc2)NC(=O)C(O)C(=O)NO)cc1` (stereo not given in full) it is 1.6 µM.

`O=C(NO)C(CCc1ccccc1)C(=O)NCc1ccccc1` (stereo not given) gave a Ki of 2.3 µM. `CC(C)CC(C(=O)NO)C(=O)N[C@@H](CCc1ccccc1)C(=O)NCCc1ccc(C(=O)O)cc1` (stereo not given in full) showed a Ki of 20 µM.

`COC(=O)c1ccc(CCNC(=O)[C@H](CCc2ccccc2)NC(=O)C(CC(C)C)C(=O)NO)cc1` (stereo not given in full) gave a Ki of 9.6 µM. The molecule `CC(C)CC(C(=O)NO)C(=O)N[C@@H](CCc1ccccc1)C(=O)NCCc1ccc(O)cc1` (stereo not given in full) registered a Ki of 12 µM. This Ki and that of the molecule before are within 1.5-fold of each other. With `CC(C)CC(C(=O)NO)C(=O)N1CCCC1C(=O)NCc1ccccc1` (stereo not given), the Ki stood at 168 µM. The figure for `CC(C)CC(C(=O)NO)C(=O)NC(C)C(=O)NCc1ccccc1` (stereo not given) is 50 µM; for `CC(C)CC(C(=O)NO)C(=O)NC(CO)C(=O)NCc1ccccc1` (stereo not given) it is 35 µM.

The values are drawn from ChEMBL document CHEMBL1131458, “Design and synthesis of malonic acid-based inhibitors of human neutrophil collagenase (MMP8)” (J Med Chem, 1998).
